Like-named read-outs stand apart in the source and are kept apart here. Marks after values point to notes of the source that are not given here.
Key:
[1] = tested on: transgenic soybean T1 plants expressing PfHPPD-Evo33; format: in vivo; conditions: for number of events, herbicide tolerance class 0 (41%-100% damaged leaf area) / number of events, herbicide tolerance class 1 (16%-40% damaged leaf area) / number of events, herbicide tolerance class 2 (6%-15% damaged leaf area) / number of events, herbicide tolerance class 3 (0%-5% damaged leaf area): soybean PfHPPD-Evo33, scored after 21 days
Digitaria horizontalis = experiment: Field trial, weed efficacy, post applied; format: in vivo; conditions: (A) 50 g ai/ha; application at 2 tillers; assessment 14 days after application
[2] = tested on: Non-transformed maize plants; experiment: Greenhouse trial, maize plants, leaf damage; format: in vivo; conditions: 25 g AI/ha
Description: (§1) Regenerated T0 events from tissue culture were transplanted into two inch square pots with synthetic soil (Fafard® Mix) and controlled-released fertilizer (Haifa Multicote™; polymer-coated controlled-release fertilizer, NPK Pro 18-6-12+Micronutrients) and cultivated in the greenhouse (GH) under supplementary high pressure sodium light for 12 days at a maximum of 30° C. during the day and a minimum of 22° C. at night. Fully recovered plants were transferred into five inch square pots filled with synthetic soil and control released fertilizer under the same environmental conditions. […] All herbicide treatments were conducted in a DeVries Tracker Sprayer system with standard application protocols, which are well known in the art. As a spray control T0 events have been sprayed with the adjunvant mixture lacking the herbicide.

[3] = tested on: Control maize plants (EPSPS selectable marker gene, no HPPD variant); experiment: Greenhouse trial, maize T0 plants, leaf area damage; format: in vivo; conditions: for number of events, herbicide tolerance class 0 (41%-100% damaged leaf area) / number of events, herbicide tolerance class 1 (16%-40% damaged leaf area) / number of events, herbicide tolerance class 2 (6%-15% damaged leaf area) / number of events, herbicide tolerance class 3 (0%-5% damaged leaf area): maize Control
Description: as §1
A rating of “1” was assigned to plants having a moderate tolerance with 16% to 40% damage of total leaf area. A rating of “2” was assigned to plants with good tolerance within the range of 6% to 15% damage of total leaf area.

[4] = biological target: PfHPPD-Evo40 (SEQ ID No 27) (Pseudomonas sp., UniProt P80064, A172V/A339E/A53E/D148E/D45N/E105D/E287Q/E300V/E334P/F143Y/G286D/G335S/H150N/H254A/H63N/I158V/I187A/I249V/K92N/L18F/N24G/N280D/S245T/S257K/S301E/T205S/V65I); experiment: biochemical; parameters: species or system Pseudomonas fluorescens
PfHPPD-Evo40 (SEQ ID No 27), sequence (P80064 1-354 with tags or gaps with the stated changes limits assumed): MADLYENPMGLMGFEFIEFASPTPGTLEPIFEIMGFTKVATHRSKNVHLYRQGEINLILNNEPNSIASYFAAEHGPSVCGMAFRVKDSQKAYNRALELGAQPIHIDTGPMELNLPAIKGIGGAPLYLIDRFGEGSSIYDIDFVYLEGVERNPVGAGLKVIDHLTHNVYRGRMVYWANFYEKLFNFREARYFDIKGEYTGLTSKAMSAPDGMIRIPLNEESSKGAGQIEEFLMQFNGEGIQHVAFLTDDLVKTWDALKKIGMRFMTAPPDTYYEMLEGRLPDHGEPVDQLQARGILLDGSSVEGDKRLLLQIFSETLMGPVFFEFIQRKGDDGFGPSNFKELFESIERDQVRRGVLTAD

Amaranthus retroflexus = conditions: (A) 50 g ai/ha; application at 6 leaf stage; assessment 14 days after application
[5] = 25 g AI/ha, evaluation 9 days after treatment
[6] = 50 g AI/ha, six days after application
[7] = 100 g AI/ha, six days after application

CSc1c(C(F)(F)F)ccc(C(=O)Nc2nnnn2C)c1Cl
herbicide tolerance ([1]; most soybean T1 plants expressing PfHPPD-Evo33, 25 g AI/ha): high tolerance
number of events, herbicide tolerance class 0 (41%-100% damaged leaf area) ([1]; 6.25 g AI/ha): 1
number of events, herbicide tolerance class 1 (16%-40% damaged leaf area) ([1]; 6.25 g AI/ha): 0
number of events, herbicide tolerance class 2 (6%-15% damaged leaf area) ([1]; 6.25 g AI/ha): 0
number of events, herbicide tolerance class 3 (0%-5% damaged leaf area) ([1]; 6.25 g AI/ha): 11
number of events, herbicide tolerance class 0 (41%-100% damaged leaf area) ([1]; 25 g AI/ha): 1
number of events, herbicide tolerance class 1 (16%-40% damaged leaf area) ([1]; 25 g AI/ha): 0
number of events, herbicide tolerance class 2 (6%-15% damaged leaf area) ([1]; 25 g AI/ha): 2
number of events, herbicide tolerance class 3 (0%-5% damaged leaf area) ([1]; 25 g AI/ha): 13
number of events, herbicide tolerance class 0 (41%-100% damaged leaf area) ([1]; 50 g AI/ha): 0
number of events, herbicide tolerance class 1 (16%-40% damaged leaf area) ([1]; 50 g AI/ha): 4
number of events, herbicide tolerance class 2 (6%-15% damaged leaf area) ([1]; 50 g AI/ha): 0
number of events, herbicide tolerance class 3 (0%-5% damaged leaf area) ([1]; 50 g AI/ha): 0
number of events, herbicide tolerance class 0 (41%-100% damaged leaf area) ([1]; 75 g AI/ha): 0
number of events, herbicide tolerance class 1 (16%-40% damaged leaf area) ([1]; 75 g AI/ha): 4
number of events, herbicide tolerance class 2 (6%-15% damaged leaf area) ([1]; 75 g AI/ha): 0
number of events, herbicide tolerance class 3 (0%-5% damaged leaf area) ([1]; 75 g AI/ha): 0
Efficacy (%) Digitaria horizontalis (Digitaria horizontalis): 70%
leaf damage [2]: 100%
bleaching symptoms ([3]; all control events, 25 g of AI/ha): severe bleaching symptoms
leaf damage ([3]; control maize T0 events without HPPD variant, 25 g AI/ha): 100%
number of events, herbicide tolerance class 0 (41%-100% damaged leaf area) [3, 5]: 5*
number of events, herbicide tolerance class 1 (16%-40% damaged leaf area) [3, 5]: 0
number of events, herbicide tolerance class 2 (6%-15% damaged leaf area) [3, 5]: 0
number of events, herbicide tolerance class 3 (0%-5% damaged leaf area) [3, 5]: 0
number of events, herbicide tolerance class 0 (41%-100% damaged leaf area) [3, 6]: 4
number of events, herbicide tolerance class 1 (16%-40% damaged leaf area) [3, 6]: 0
number of events, herbicide tolerance class 2 (6%-15% damaged leaf area) [3, 6]: 0
number of events, herbicide tolerance class 3 (0%-5% damaged leaf area) [3, 6]: 0
number of events, herbicide tolerance class 0 (41%-100% damaged leaf area) [3, 7]: 50
number of events, herbicide tolerance class 1 (16%-40% damaged leaf area) [3, 7]: 0
number of events, herbicide tolerance class 2 (6%-15% damaged leaf area) [3, 7]: 0
number of events, herbicide tolerance class 3 (0%-5% damaged leaf area) [3, 7]: 0
IC50 [4]: 251 nM
% inhibition at 0.2 μM ([4]; 0.2 μM inhibitor, HGD assay): 40%
Efficacy (%) Amaranthus retroflexus (Amaranthus retroflexus): 65%

Reference: patent US10159249B2 (BAYER CROPSCIENCE AKTIENGESELLSCHAFT, priority 2013, dated 2018)
